Laboratory results from patent US20020150990A1, “Hepatitis C virus peptides” (priority 1992, published 2002).
Ends that are not written are not given here.

Tested on: antibodies against HCV
Assay: PEPSCAN analysis of overlapping octameric peptides of the HCV core protein N-terminal region with HCV-seropositive sera
Type: binding, human
Settings: read at 405 nm
Text: The N-terminal 97 amino acid residues of HCV Core protein SEQ ID NO: 8 was mapped with PEPSCAN analysis. This process involved the serological analysis of sequentially overlapping peptides which spanned the region of interest, to identify epitopic domains. Ninety overlapping octameric peptides were synthesized on polypropylene pin supports according to the manufacturer's instructions (Cambridge Research Biochemicals), such that each peptide overlapped with the preceding sequence by the seven N-terminal residues, and with the subsequent peptide by the seven C-terminal residues. Serum or IgG purified from the serum of individuals confirmed to be seropositive for HCV were used to screen the peptides.
The assay procedure followed was performed basically as described in the manufacturers instruction manual. The time and temperature of the test antibody incubation differed from that prescribed, thereby decreasing the time taken for each assay.
Sera: A total of 16 sera were assayed by PEPSCAN. These consisted of 12 sera from paid U.S. Donors which were identified as being positive for antibodies against HCV in routine screening at the site of donation. The remaining four sera were from patients diagnosed as having non-A non-B hepatitis, and which were subsequently shown to contain antibodies to HCV. Sera were screened either as the crude serum fraction, or as a caprylic acid preparation. Caprylic acid purification of IgG from the sera was performed as described by Stienbuch and Audran (1969) Arch. Biochem. Biophys. 134, 279-284.
Assay: The assay format involves sequentially incubating the various pins in microwell plates containing blocking, test antibody, conjugate, and substrate solutions. The immune complex builds up on the pin with the enzyme labelled conjugate being immobilized on the bound anti-peptide antibody from the test serum. When the pin is then immersed in substrate, the enzyme brings about the colour change which is used to quantify the amount of anti-peptide antibody bound.
Blocking: Pins are immersed in 200 μl of Supercocktail (1% Ovalbumin, 1% bovine serum albumin in 0.15M phosphate buffered saline pH 7.2—0.1% Tween 20) and left to stand at room temperature for 1 hour.
Test antibody: The test antibody is diluted between 1/200 (IgG) and 1/1000 (serum) in supercocktail. The pins are then stood in this solution (175 μl/well) at 37° C. for 1 hour. After this incubation the pins are washed four times in 0.15M phosphate buffered saline pH 7.2—0.05% Tween 20, each at room temperature for 10 minutes.
Conjugate: Rabbit anti-human IgG coupled to horseradish peroxidase is diluted 1/1000 in supercocktail. The peptide bearing pins are then stood in this solution at room temperature for 1 hour. Once again the pins are then washed four times as above.
Substrate: The substrate solution is made up fresh for each assay. To 100 ml of 0.1M phosphate, 0.08M citrate buffer pH 4.0 is dissolved 50 mg of 2,2′-AZINO-bis (3-ethylbenzthiazo-linsulphonic acid (ABTS) and 0.3 μl/ml 30% hydrogen peroxide is added. The pins are immersed in the wells containing substrate solution (150 μl/well) and incubated at room temperature in the dark. Once sufficient colour has developed the reaction is stopped by removing the pins. The plates are then read immediately in a spectrophotometric plate reader at a wavelength of 405 nm. The absorbance values are then plotted against pin number. The epitopic domains are then defined as the continuous sequence of amino acids common to all positive pins in the domain i.e.

| Sequence | Absorbance Units for different sera (serum 65221) [Absorbance Units] | Absorbance Units for different sera (serum 65234) [Absorbance Units] | Absorbance Units for different sera (serum 65241) [Absorbance Units] | Absorbance Units for different sera (serum 65276) [Absorbance Units] | Absorbance Units for different sera (serum L) [Absorbance Units] |
| --- | --- | --- | --- | --- | --- |
| IVGGVYLL (pin support) [overlapping octameric peptide of HCV core protein on pin support] | 268 | 186 | 126 | 183 | 158 |
| RGPRLGVR (pin support) [overlapping octameric peptide of HCV core protein on pin support] | 168 | 99 | 94 | 167 | 132 |
| LLPRRGPR (pin support) [overlapping octameric peptide of HCV core protein on pin support] | 142 | 101 | 129 | 98 | 133 |
| GGVYLLPR (pin support) [overlapping octameric peptide of HCV core protein on pin support] | 132 | 344 | 311 | 246 | 191 |
| RLGVRATR (pin support) [overlapping octameric peptide of HCV core protein on pin support] | 81 | 100 | 180 | 177 | 124 |
| VGGVYLLP (pin support) [overlapping octameric peptide of HCV core protein on pin support] | 83 | 235 | 144 | 132 | 169 |
| YLLPRRGP (pin support) [Tyr-Leu-Leu-Pro-Arg-Arg-Gly-Pro, overlapping octameric peptide of HCV core protein on pin support] | 332 | 177 | 367 | 248 | 242 |
| PRLGVRAT (pin support) [overlapping octameric peptide of HCV core protein on pin support] | 166 | 88 | 79 | 155 | 115 |
| GPRLGVRA (pin support) [overlapping octameric peptide of HCV core protein on pin support] | 111 | 75 | 60 | 146 | 101 |
| GGGQIVGG (pin support) [overlapping octameric peptide of HCV core protein on pin support] | 137 | 134 | 121 | 127 | 121 |
| VYLLPRRG (pin support) [Val-Tyr-Leu-Leu-Pro-Arg-Arg-Gly, overlapping octameric peptide of HCV core protein on pin support] | 769 | 280 | 641 | 440 | 306 |
| GGQIVGGV (pin support) [overlapping octameric peptide of HCV core protein on pin support] | 323 | 179 | 122 | 119 | 119 |
| QIVGGVYL (pin support) [overlapping octameric peptide of HCV core protein on pin support] | 329 | 152 | 125 | 165 | 161 |
| GQIVGGVY (pin support) [overlapping octameric peptide of HCV core protein on pin support] | 216 | 165 | 112 | 128 | 138 |
| GVYLLPRR (also: pin support) [Gly-Val-Tyr-Leu-Leu-Pro-Arg-Arg, overlapping octameric peptide of HCV core protein on pin support] | 613 | 229 | 511 | 350 | 378 |
